Data set [1] concerns P-388 mouse leukemia cells. In words: P-388 mouse leukemia cell culture cytotoxicity assay. Format: cell-based. The conditions noted are these: cultured P-388 leukemia cells. The text has this:
The ED50 cytotoxicity concentrations determined for analogs 7a, 9a, 10a, 16a, 16b, 17a and 17b in the P-388 mouse leukemia cell culture assay are given in Table II.

For data set [2], the system named is HIV. Description: Anti-HIV assay (NCI FCRF, XTT microculture tetrazolium), infected cells. As to conditions: for anti-HIV activity: in vitro. The format is cell-based. The text has this: (§1) Compounds of formula I were screened for anti-HIV activity at the National Cancer Institute, Frederick Cancer Research Facility, Frederick, Md. (FCRF). The following are the current screening mode operational procedures utilized at FCRF. The protocol consists of 3 areas, (I) preparation of infected cells and distribution to the test plates, (II) preparation of drug dilution plates and distribution to the test plates, and (III) XTT assay procedure. See D. A. Scudiero et al., “A New Simplified Tetrazolium Assay for Cell Growth and Drug Sensitivity in Culture,” Cancer Res., 48, 4827 (1988).
Cells to be infected (a normal lymphoblastoid cell line which expresses CD4) are placed in 50 ml conical centrifuge tubes and treated for 1 hr with 1-2 μg/ml of polybrene at 37° C. The cells are then pelleted for 8 min. ) at 1200 rpm. HIV virus, diluted 1:10 in media (RMP1-1640, 10% human serum or 15% fetal calf serum (FCS), with IL-2, for ATH8 cells only, and antibiotics) is added to provided an MOI of 0.001. Medium alone is added to virus-free control cells. Assuming an infectious virus titer of 10^−4, an MOI of 0.001 represents […] infectious virus particles per 10,000 cells. About 500,000 cells/tube are exposed to 400 μl of the virus dilution. The resultant mixture is incubated for 1 hr at 37° C. in Air-CO2. The infected or uninfected cells are diluted to give 1×10^−4 (with human serum or 2×10^−4 with fetal calf serum) cells/100 μl.
Infected or uninfected cells (100 μl) are distributed to appropriate wells of a 96 well, U-bottom, microtiter plate. Each compound dilution is tested in duplicate with infected cells. Uninfected cells are examined for drug sensitivity in a single well for each dilution of compound. Drug-free control cells, infected and uninfected, are run in triplicate. Wells B2 through G2 served as reagent controls and received medium only. The plates are incubated at 37° C. in Air-CO2 until the drug is added.
Dilution plates (flat bottom 96 well, microtiter plates) are treated overnight with phosphate buffered saline (PBS) or media containing at least 1% FCS or 1% human serum (depending on the medium used in the test), beginning the day before assay. This “blocking” procedure is used to limit the adsorption of drug to the microtiter tray during the dilution process. The wells are filled completely with the blocking solution and allowed to stand at room temperature in a humidified chamber in a hood.
The dilution process is begun by first diluting the test compound 1:20. Blocked, dilution plates are prepared by flicking out the blocking solution and blotting dry on sterile gauze. All wells of each plate are then filled with 225 μl of the appropriate medium using a Cetus liquid handling system. Twenty-five microliters (25 μl) of each 1:20 diluted compound is then manually added to row A of a blocked and filled dilution plate. Four compounds, sufficient to supply two test plates, are added per dilution plate. The four compounds are then serially diluted ten-fold from row A through row H using the Cetus liquid handling system. The starting dilution of each compound in row A is, at this point, 1:200. The dilution plates are kept on ice until needed.
Using a multi-channel pipettor with 6 microtips, 100 μl of each drug dilution is transferred to the test plate which already contains 100 μl of medium plus cells. The final dilution, in the test plate, starts at 1:400 (wells B4 through G4). This dilution (to 0.25% DMSO) prevents the DMSO vehicle from interfering with cell growth. Drug-free, infected or uninfected cells (wells B3 through G3) and reagent controls (B2 through G2) receive medium alone. The final two compounds are then transferred from wells H7 through H12 to a second test plate using the same procedure. Test plates are incubated at 37° C. in Air-CO2 or 7-14 days or until virus controls are lysed as determined macroscopically.
1. […]
On the technique in general: Tetrazolium assays rely on reduction of a dye to a coloured formazan, in cell work by metabolically active cells.

Data set [3] has as its system normal cells (uninfected). In words: Anti-HIV assay (NCI FCRF, XTT), drug sensitivity of uninfected cells. Format: cell-based.
Text: as §1
Cells to be infected (a normal lymphoblastoid cell line which expresses CD4) are placed in 50 ml conical centrifuge tubes and treated for 1 hr with 1-2 μg/ml of polybrene at 37° C. The cells are then pelleted for 8 min. ) at 1200 rpm. HIV virus, diluted 1:10 in media (RMP1-1640, 10% human serum or 15% fetal calf serum (FCS), with IL-2, for ATH8 cells only, and antibiotics) is added to provided an MOI of 0.001. Medium alone is added to virus-free control cells. […]
Using a multi-channel pipettor with 6 microtips, 100 μl of each drug dilution is transferred to the test plate which already contains 100 μl of medium plus cells. […] Test plates are incubated at 37° C. in Air-CO2 or 7-14 days or until virus controls are lysed as determined macroscopically. […]

Data set [4] relates to H9/HTLV-IIIB. Description: Earlier anti-HIV assay at the Southern Research Institute. The format is cell-based. As to conditions: MT-2 cells cultured with H9/HTLV-IIIB. The method, then:
An earlier assay carried out at the Southern Research Institute yielded a TI50 of about 200 when MT-2 cells were cultured with H9/HTLV-IIIB.

The test system of data set [5] is HSV-1. Description: Activity against HSV-1.
Data set [6] relates to HIV. On the set-up: TI50 against HIV in vitro: unit not given beside the values. The conditions noted are these: background; cited from earlier work.
Data set [7] relates to HSV-2. As to conditions: background; cited from earlier work.

The structures appear in SMILES notation. In brackets after ≈: the same amount, converted by molar mass.

As for `Nc1nc(Cl)c2nnn(C3C=CC(CO)C3)c2n1` (racemic) [Compound 16a, (±)-(1α,4α)-4-(5-Amino-7-chloro-3H-1,2,3-triazolo[4,5d]-pyrimidin-3-yl)-2-cyclopentenyl carbinol], in data set [1], the “cytotoxicity / activity against P-388 leukemia cells” value is “cytotoxic”.
On to `Nc1nc(Cl)c2ncn([C@H]3C=C[C@@H](CO)C3)c2n1` (racemic) [Compound 13a, (±)-(1α,4α)-4-(2-Amino-6-chloro-9H-purin-9-yl)-2-cyclopentenyl carbinol], for which the “anti-HIV activity” value in data set [2] was “active”.
As to `Nc1nc(O)c2ncn(C3C=CC(CO)C3)c2n1` (racemic) [Compound 14a, (±)-(1α,4α)-4-(2-Amino-6-hydroxy-9H-purin-9-yl)-2-cyclopentenyl carbinol], in data set [2] (calculated from FIG. 2 data), the “effective concentration (EC50) with respect to infected cells” value was “about 0.15 μg/ml”. Besides, in data set [2], the “anti-HIV activity” value is reported as “strongly inhibits”. In addition, the “TI50, general range” value in data set [2] (varied with the infected cell line used) is 200-400. Also, the “inhibitory concentration (IC50) with respect to normal cells” value in data set [3] (calculated from FIG. 2 data) is recorded as “about 100 μg/ml”. For the same compound, in data set [4], the TI50 result was “about 200”. The “activity against HSV-1” value in data set [5] is on record as “active”.
With `Nc1nc(O)c2ncn([C@H]3C=C[C@@H](CO)C3)c2n1` [(−)14a, (1S,4R)-4-(2-Amino-6-hydroxy-9H-Purin-9-yl)-2-cyclopentenyl Carbinol], the “anti-HIV activity” value in data set [2] was “highly active”. In addition, the IC50 (usually the concentration that inhibits the measured activity by half) in data set [3] (Homo sapiens, CCRF-CEM, CEM cells) is 189 µg/mL (≈ 764 µM).
As for `Nc1nc(O)c2nnn(C3C=CC(CO)C3)c2n1` (racemic) [Compound 17a, (±)-(1α,4α)-4-(5-Amino-7-hydroxy-3H-1,2,3-triazolo[4,5-d]-pyrimidin-3-yl)-2-cyclopentenyl carbinol], in data set [1], the “cytotoxicity / activity against P-388 leukemia cells” value was “cytotoxic”.
`Nc1ncnc2c1ncn2C1C=CC(CO)C1` (racemic) [Compound 9a, (±)-(1α,4α)-4-(6-Amino-9H-purin-9-yl)-2-cyclopentenyl-carbinol]: the “cytotoxicity / activity against P-388 leukemia cells” value in data set [1] is listed as “cytotoxic”. For the same compound, the “anti-HIV activity” value in data set [2] was “active”.
For `Nc1ncnc2c1ncn2[C@@H]1C[C@H](CO)[C@@H](O)[C@@H]1O` [Cyclaridine], the “TI50 against HIV in vitro” value in data set [6] is 10. Also, the “activity against HSV-2” value in data set [7] is on record as “highly active”.
`CC(=O)OCC1C=CC(n2cnc3c(O)nc(N)nc32)C1` (stereo not drawn) [acetate ester (R′=Ac) of 14a, (1α,4α)-4-(2-Amino-6-hydroxy-9H-purin-9-yl)-2-cyclopentenyl Acetoxycarbinol]: the “inhibition of HIV” value in data set [2] (at 6 μg/ml) amounted to 28%. In addition, the “anti-HIV activity” value in data set [2] was “active”.
Regarding `Cc1cn(C2CC(CO)C(N=[N+]=[N-])C2)c(=O)[nH]c1=O` (stereo not drawn) [carbocyclic analog of AZT], the “activity against HIV” value in data set [6] was “inactive”.
As for `Nc1nc(N)c2nnn(C3C=CC(CO)C3)c2n1` (racemic) [Compound 18a, (±)-(1α,4α)-4-(5,7-Diamino-3H-1,2,3-triazolo[4,5-d]pyrimidin-3-yl)-2-cyclopentenyl carbinol], in data set [1], the “cytotoxicity / activity against P-388 leukemia cells” value is “cytotoxic”.
Take `Nc1nc(N)c2ncn([C@H]3C=C[C@@H](CO)C3)c2n1` (racemic) [Compound 15a, (±)-(1α,4α)-4-(2,6-Diamino-9H-purin-9-yl)-2-cyclopentenyl-carbinol]: the “anti-HIV activity” value in data set [2] is recorded as “active”.
Turning to `OCC1C=CC(n2cnc3c(Cl)ncnc32)C1` (racemic) [Compound 7a, (±)-(1α,4α)-4-(6-chloro-9H-purin-9-yl)-2-cyclopentenyl-carbinol], the “cytotoxicity / activity against P-388 leukemia cells” value in data set [1] is “cytotoxic”. For the same compound, the “anti-HIV activity” value in data set [2] is “active”.
In the same order, the values of `OCC1C=CC(n2cnc3c(S)ncnc32)C1` (racemic) [Compound 10a, (±)-(1α,4α)-4-(6-Mercapto-9H-purin-9-yl)-2-cyclopentenyl-carbinol] are “cytotoxic” and “active”.

Values taken from patent publication US6534512B1, “Dideoxycarbocyclic nucleosides” (Regents of the University of Minnesota, priority 1988, dated 2003).
